Tests used:
Experiment in all cases: cells
Conditions in all cases: Homo sapiens
NB69 = format: functional, cell-based;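 further: growth inhibition of NB69 cells, determined by a cell viability assay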
Description: SANGER: Inhibition of human NB69 cell growth in a cell viability assay.

TE-6 = format: functional, cell-based;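 further: growth inhibition of TE-6 cells, read out with a cell viability assay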
Description: SANGER: Inhibition of human TE-6 cell growth in a cell viability assay.

DB = format: functional, cell-based
Description: SANGER: Inhibition of human DB cell growth in a cell viability assay.

BB49-HNC = format: functional, cell-based;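 further: cell viability assay read-out, reported as inhibition of BB49-HNC cell growth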
Description: SANGER: Inhibition of human BB49-HNC cell growth in a cell viability assay.

A388 = format: functional, cell-based;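 further: growth inhibition of human A388 cells, read out with a cell viability assay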
Description: SANGER: Inhibition of human A388 cell growth in a cell viability assay.

KG-1 = format: functional, cell-based;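 further: growth inhibition of KG-1 cells, read out by a cell viability assay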
Description: SANGER: Inhibition of human KG-1 cell growth in a cell viability assay.

NCI-H209 = format: functional, cell-based;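 further: growth inhibition of human NCI-H209 cells, measured by a cell viability assay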
Description: SANGER: Inhibition of human NCI-H209 cell growth in a cell viability assay.

MV4-11 = format: functional, cell-based, MV-4-11;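 further: cell viability readout measuring growth inhibition of human MV-4-11 cells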
Description: SANGER: Inhibition of human MV-4-11 cell growth in a cell viability assay.

KM12 = format: functional, cell-based;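 further: KM12 cell growth inhibition, read out with a cell viability assay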
Description: SANGER: Inhibition of human KM12 cell growth in a cell viability assay.

HDLM-2 = format: functional, cell-based;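 further: cell viability assay measuring suppression of HDLM-2 proliferation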
Description: SANGER: Inhibition of human HDLM-2 cell growth in a cell viability assay.

NCI-H1581 = format: functional, cell-based;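 further: cell growth inhibition read out by a viability assay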
Description: SANGER: Inhibition of human NCI-H1581 cell growth in a cell viability assay.

NCI-H526 = format: functional, cell-based;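 further: growth inhibition of the human NCI-H526 cell line, measured by a cell viability assay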
Description: SANGER: Inhibition of human NCI-H526 cell growth in a cell viability assay.

ACN = format: functional, cell-based;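 further: growth inhibition of the human ACN cell line, read out via cell viability testing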
Description: SANGER: Inhibition of human ACN cell growth in a cell viability assay.

RPMI-8226 = format: functional, cell-based
Description: SANGER: Inhibition of human RPMI-8226 cell growth in a cell viability assay.

SW 954 = format: functional, cell-based;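 further: growth inhibition of SW954 human cancer cells, read out as cell viability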
Description: SANGER: Inhibition of human SW954 cell growth in a cell viability assay.

EW-3 = format: functional, cell-based;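 further: cell viability assay read-out, IC50 reflects inhibition of growth of the EW-3 cells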
Description: SANGER: Inhibition of human EW-3 cell growth in a cell viability assay.

MS-1 = format: functional, cell-based;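 further: growth inhibition of MS-1 cells, read out by cell viability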
Description: SANGER: Inhibition of human MS-1 cell growth in a cell viability assay.

J-RT3-T3-5 = format: functional, cell-based;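 further: cell viability assay measuring growth inhibition of human J-RT3-T3-5 cells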
Description: SANGER: Inhibition of human J-RT3-T3-5 cell growth in a cell viability assay.

LB1047-RCC = format: functional, cell-based;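 further: inhibition of cell growth, determined with a cell viability assay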
Description: SANGER: Inhibition of human LB1047-RCC cell growth in a cell viability assay.

MZ1-PC = format: functional, cell-based;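 further: cell viability assay measuring growth inhibition of human MZ1-PC cells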
Description: SANGER: Inhibition of human MZ1-PC cell growth in a cell viability assay.

ES8 = format: functional, cell-based;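 further: growth inhibition of human ES8 cells, read out with a cell viability assay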
Description: SANGER: Inhibition of human ES8 cell growth in a cell viability assay.

MOLT-4 = format: functional, cell-based;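 further: growth inhibition of MOLT-4 cells, determined with a cell viability readout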
Description: SANGER: Inhibition of human MOLT-4 cell growth in a cell viability assay.

ES6 = format: functional, cell-based;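 further: growth inhibition of human ES6 cells, read out with a cell viability assay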
Description: SANGER: Inhibition of human ES6 cell growth in a cell viability assay.

NMC-G1 = format: functional, cell-based;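 further: growth inhibition of the NMC-G1 cell line, measured with a cell viability read-out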
Description: SANGER: Inhibition of human NMC-G1 cell growth in a cell viability assay.

MZ7-mel = format: functional, cell-based;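 further: growth inhibition of human MZ7-mel cells, measured by a cell viability assay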
Description: SANGER: Inhibition of human MZ7-mel cell growth in a cell viability assay.

ES3 = format: functional, cell-based;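 further: growth inhibition of ES3 cells, read out with a cell viability assay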
Description: SANGER: Inhibition of human ES3 cell growth in a cell viability assay.

HCE-4 = format: functional, cell-based;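 further: cell viability assay measuring inhibition of growth in the human HCE-4 cell line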
Description: SANGER: Inhibition of human HCE-4 cell growth in a cell viability assay.

SK-PN-DW = format: functional, cell-based;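 further: growth inhibition measured with a viability assay on these cells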
Description: SANGER: Inhibition of human SK-PN-DW cell growth in a cell viability assay.

COR-L88 = format: functional, cell-based;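 further: growth inhibition of COR-L88 cells, read out with a cell viability assay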
Description: SANGER: Inhibition of human COR-L88 cell growth in a cell viability assay.

A4-Fuk = format: functional, cell-based;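 further: growth inhibition of A4-Fuk cells, read out by a cell viability assay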
Description: SANGER: Inhibition of human A4-Fuk cell growth in a cell viability assay.

EW-13 = format: functional, cell-based;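 further: growth inhibition of EW-13 cells, read out with a cell viability assay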
Description: SANGER: Inhibition of human EW-13 cell growth in a cell viability assay.

NCI-H1838 = format: functional, cell-based;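 further: growth inhibition of NCI-H1838 cells, determined with a cell viability readout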
Description: SANGER: Inhibition of human NCI-H1838 cell growth in a cell viability assay.

D283 Med = format: functional, cell-based
Description: SANGER: Inhibition of human D-283MED cell growth in a cell viability assay.

JAR = format: functional, cell-based;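 further: growth inhibition of human JAR cells determined with a cell viability assay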
Description: SANGER: Inhibition of human JAR cell growth in a cell viability assay.

U-266 = format: functional, cell-based
Description: SANGER: Inhibition of human U-266 cell growth in a cell viability assay.

NCI-H1648 = format: functional, cell-based;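 further: cell viability assay measuring inhibition of NCI-H1648 cell growth, from the Sanger screening data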
Description: SANGER: Inhibition of human NCI-H1648 cell growth in a cell viability assay.

CTB-1 = format: functional, cell-based
Description: SANGER: Inhibition of human CTB-1 cell growth in a cell viability assay.

LB771-HNC = format: functional, cell-based;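 further: growth inhibition of LB771-HNC human cells, read out with a cell viability assay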
Description: SANGER: Inhibition of human LB771-HNC cell growth in a cell viability assay.

SBC-1 = format: functional, cell-based;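 further: cell viability assay measuring growth inhibition of the SBC-1 cell line, IC50 being the concentration that halves growth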
Description: SANGER: Inhibition of human SBC-1 cell growth in a cell viability assay.

K5 = format: functional, cell-based
Description: SANGER: Inhibition of human K5 cell growth in a cell viability assay.

ES1 = format: functional, cell-based;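 further: growth inhibition of ES1 cells, read out with a cell viability assay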
Description: SANGER: Inhibition of human ES1 cell growth in a cell viability assay.

EW-16 = format: functional, cell-based;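 further: growth inhibition of human EW-16 cells, read out as cell viability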
Description: SANGER: Inhibition of human EW-16 cell growth in a cell viability assay.

NCI-H1355 = format: functional, cell-based;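 further: growth inhibition of human NCI-H1355 cells, read out by a cell viability assay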
Description: SANGER: Inhibition of human NCI-H1355 cell growth in a cell viability assay.

KGN = format: functional, cell-based;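 further: growth inhibition of KGN cells, read out with a cell viability assay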
Description: SANGER: Inhibition of human KGN cell growth in a cell viability assay.

LS-411N = format: functional, cell-based
JVM-3 = format: functional, cell-based;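 further: growth inhibition of human JVM-3 cells, read out with a cell viability assay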
Description: SANGER: Inhibition of human JVM-3 cell growth in a cell viability assay.

RKO = format: functional, cell-based;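 further: growth inhibition of human RKO cells, read out with a cell viability assay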
Description: SANGER: Inhibition of human RKO cell growth in a cell viability assay.

GB-1 = format: functional, cell-based;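 further: growth of GB-1 cells judged by a viability assay, IC50 marks the concentration inhibiting growth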
Description: SANGER: Inhibition of human GB-1 cell growth in a cell viability assay.

TE-9 = format: functional, cell-based;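 further: cell growth inhibition, measured with a cell viability readout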
Description: SANGER: Inhibition of human TE-9 cell growth in a cell viability assay.

GR-ST = format: functional, cell-based
Description: SANGER: Inhibition of human GR-ST cell growth in a cell viability assay.

SCC-15 = format: functional, cell-based;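 further: growth inhibition of SCC-15 cells, read out with a cell viability assay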
Description: SANGER: Inhibition of human SCC-15 cell growth in a cell viability assay.

CGTH-W-1 = format: functional, cell-based;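 further: growth inhibition of human CGTH-W-1 cells measured by cell viability assay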
Description: SANGER: Inhibition of human CGTH-W-1 cell growth in a cell viability assay.

LOX IMVI = format: functional, cell-based
Description: SANGER: Inhibition of human LOXIMVI cell growth in a cell viability assay.

TE-11 = format: functional, cell-based;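 further: growth inhibition of human TE-11 cells, read out by a cell viability assay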
Description: SANGER: Inhibition of human TE-11 cell growth in a cell viability assay.

GI-1 = format: functional, cell-based;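 further: growth inhibition of human GI-1 cells, measured with a cell viability readout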
Description: SANGER: Inhibition of human GI-1 cell growth in a cell viability assay.

TE-5 = format: functional, cell-based;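 further: inhibition of cell growth, read out by a cell viability assay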
Description: SANGER: Inhibition of human TE-5 cell growth in a cell viability assay.

KP-N-YS = format: functional, cell-based;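 further: cell viability assay measuring inhibition of cell line growth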
Description: SANGER: Inhibition of human KP-N-YS cell growth in a cell viability assay.

C2BBe1 = format: functional, cell-based
Description: SANGER: Inhibition of human C2BBe1 cell growth in a cell viability assay.

LB831-BLC = format: functional, cell-based
Description: SANGER: Inhibition of human LB831-BLC cell growth in a cell viability assay.

MOLT-16 = format: functional, cell-based
Description: SANGER: Inhibition of human MOLT-16 cell growth in a cell viability assay.

697 = format: functional, cell-based
Description: SANGER: Inhibition of human 697 cell growth in a cell viability assay.

SK-MEL-1 = format: functional, cell-based
Description: SANGER: Inhibition of human SK-MEL-1 cell growth in a cell viability assay.

COLO-684 = format: functional, cell-based
Description: SANGER: Inhibition of human COLO-684 cell growth in a cell viability assay.

MFH-ino = format: functional, cell-based
Description: SANGER: Inhibition of human MFH-ino cell growth in a cell viability assay.

TE-1 = format: functional, cell-based
Description: SANGER: Inhibition of human TE-1 cell growth in a cell viability assay.

HEL = format: functional, cell-based
Description: SANGER: Inhibition of human HEL cell growth in a cell viability assay.

Cc1n[nH]c2ccc(-c3cncc(OC[C@@H](N)Cc4c[nH]c5ccccc45)c3)cc12 [A-443654]
IC50 (NB69): 227 nM
IC50 (TE-6): 860 nM
IC50 (DB): 375 nM
IC50 (BB49-HNC): > 1020 nM
IC50 (A388): 84.3 nM
IC50 (KG-1): > 1020 nM
IC50 (NCI-H209): 246 nM
IC50 (MV4-11): 57.7 nM
IC50 (KM12): 141 nM
IC50 (HDLM-2): > 1020 nM
IC50 (NCI-H1581): 606 nM
IC50 (NCI-H526): > 1020 nM
IC50 (ACN): 909 nM
IC50 (RPMI-8226): 670 nM
IC50 (SW 954): 177 nM
IC50 (EW-3): > 1020 nM
IC50 (MS-1): > 1020 nM
IC50 (J-RT3-T3-5): 185 nM
IC50 (LB1047-RCC): 87.2 nM
IC50 (MZ1-PC): 79.5 nM
IC50 (ES8): 151 nM
IC50 (MOLT-4): 131 nM
IC50 (ES6): 91.5 nM
IC50 (NMC-G1): 880 nM
IC50 (MZ7-mel): 564 nM
IC50 (ES3): > 1020 nM
IC50 (HCE-4): 104 nM
IC50 (SK-PN-DW): 222 nM
IC50 (COR-L88): 738 nM
IC50 (A4-Fuk): 103 nM
IC50 (EW-13): > 1020 nM
IC50 (NCI-H1838): > 1020 nM
IC50 (D283 Med): > 1020 nM
IC50 (JAR): 156 nM
IC50 (U-266): > 1020 nM
IC50 (NCI-H1648): 183 nM
IC50 (CTB-1): 509 nM
IC50 (LB771-HNC): 222 nM
IC50 (SBC-1): 160 nM
IC50 (K5): 428 nM
IC50 (ES1): 739 nM
IC50 (EW-16): 216 nM
IC50 (NCI-H1355): 113 nM
IC50 (KGN): 118 nM
IC50 (LS-411N): 87.5 nM
IC50 (JVM-3): > 1020 nM
IC50 (RKO): 136 nM
IC50 (GB-1): 199 nM
IC50 (TE-9): 389 nM
IC50 (GR-ST): 448 nM
IC50 (SCC-15): > 1020 nM
IC50 (CGTH-W-1): 246 nM
IC50 (LOX IMVI): 797 nM
IC50 (TE-11): 130 nM
IC50 (GI-1): 187 nM
IC50 (TE-5): 169 nM
IC50 (KP-N-YS): > 1020 nM
IC50 (C2BBe1): > 1020 nM
IC50 (LB831-BLC): 194 nM
IC50 (MOLT-16): 83.7 nM
IC50 697: 32.8 nM
IC50 (SK-MEL-1): > 1020 nM
IC50 (COLO-684): 79.5 nM
IC50 (MFH-ino): 236 nM
IC50 (TE-1): 111 nM
IC50 (HEL): 422 nM

CCNC(=O)c1noc(-c2cc(C(C)C)c(O)cc2O)c1-c1ccc(CN2CCOCC2)cc1 [LUMINESPIB]
IC50 (NB69): 11 nM
IC50 (TE-6): 246 nM
IC50 (DB): 229 nM
IC50 (BB49-HNC): 10.8 nM
IC50 (A388): 21.2 nM
IC50 (KG-1): > 256 nM
IC50 (NCI-H209): > 256 nM
IC50 (MV4-11): 0.558 nM
IC50 (KM12): 14 nM
IC50 (HDLM-2): 41.1 nM
IC50 (NCI-H1581): > 256 nM
IC50 (NCI-H526): 187 nM
IC50 (ACN): 16.6 nM
IC50 (RPMI-8226): 117 nM
IC50 (SW 954): 10.7 nM
IC50 (EW-3): 175 nM
IC50 (MS-1): 186 nM
IC50 (J-RT3-T3-5): 89.7 nM
IC50 (LB1047-RCC): 50.3 nM
IC50 (MZ1-PC): 26.4 nM
IC50 (ES8): 35.4 nM
IC50 (MOLT-4): 48 nM
IC50 (ES6): 12.6 nM
IC50 (NMC-G1): 22.8 nM
IC50 (MZ7-mel): 43.3 nM
IC50 (ES3): 87.6 nM
IC50 (HCE-4): 21.4 nM
IC50 (SK-PN-DW): 55.9 nM
IC50 (COR-L88): 171 nM
IC50 (A4-Fuk): 17 nM
IC50 (EW-13): 5.18 nM
IC50 (NCI-H1838): > 256 nM
IC50 (D283 Med): > 256 nM
IC50 (JAR): > 256 nM
IC50 (U-266): 145 nM
IC50 (NCI-H1648): 15 nM
IC50 (CTB-1): 135 nM
IC50 (LB771-HNC): > 256 nM
IC50 (SBC-1): > 256 nM
IC50 (K5): 13.1 nM
IC50 (ES1): 2.66 nM
IC50 (EW-16): 7.49 nM
IC50 (NCI-H1355): 24 nM
IC50 (KGN): 7.03 nM
IC50 (LS-411N): 37.3 nM
IC50 (JVM-3): > 256 nM
IC50 (RKO): 8.26 nM
IC50 (GB-1): 21.9 nM
IC50 (TE-9): 42.4 nM
IC50 (GR-ST): 102 nM
IC50 (SCC-15): 28 nM
IC50 (CGTH-W-1): 23.3 nM
IC50 (LOX IMVI): 23.2 nM
IC50 (TE-11): 200 nM
IC50 (GI-1): 148 nM
IC50 (TE-5): > 256 nM
IC50 (KP-N-YS): 83.5 nM
IC50 (C2BBe1): 199 nM
IC50 (LB831-BLC): 32.2 nM
IC50 (MOLT-16): 17.9 nM
IC50 697: 20.3 nM
IC50 (SK-MEL-1): > 256 nM
IC50 (COLO-684): 81.6 nM
IC50 (MFH-ino): 12.9 nM
IC50 (TE-1): 15.8 nM
IC50 (HEL): 38.9 nM
